The source of these data is PMC2709817 (Biochemistry, 2009).

Where two headings read alike, the source gives them in different places.

Format in all cases: biochemical
Test [1] deals with T1, LpxC (Rhizobium johnstonii, UniProt Q1ME43).
T1 sequence (Q1ME43 1-318): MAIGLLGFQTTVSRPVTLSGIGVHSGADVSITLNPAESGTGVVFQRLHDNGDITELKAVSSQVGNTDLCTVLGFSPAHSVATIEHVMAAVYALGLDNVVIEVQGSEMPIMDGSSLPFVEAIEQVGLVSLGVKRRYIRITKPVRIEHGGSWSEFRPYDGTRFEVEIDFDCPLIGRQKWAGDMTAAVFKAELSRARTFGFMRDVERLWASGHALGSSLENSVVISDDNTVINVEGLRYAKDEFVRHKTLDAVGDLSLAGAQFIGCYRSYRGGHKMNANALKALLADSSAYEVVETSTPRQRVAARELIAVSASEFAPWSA
The test can be described thus: percent inhibition of purified LpxC ortholog at […]. To be noted: read-out: 1-68Aa.

The target of test [2] is T2, UDP-3-O-(R-3-hydroxyacyl)-N-acetylglucosamine deacetylase LpxC (Escherichia coli, UniProt P0A725).
T2 sequence (P0A725 1-305): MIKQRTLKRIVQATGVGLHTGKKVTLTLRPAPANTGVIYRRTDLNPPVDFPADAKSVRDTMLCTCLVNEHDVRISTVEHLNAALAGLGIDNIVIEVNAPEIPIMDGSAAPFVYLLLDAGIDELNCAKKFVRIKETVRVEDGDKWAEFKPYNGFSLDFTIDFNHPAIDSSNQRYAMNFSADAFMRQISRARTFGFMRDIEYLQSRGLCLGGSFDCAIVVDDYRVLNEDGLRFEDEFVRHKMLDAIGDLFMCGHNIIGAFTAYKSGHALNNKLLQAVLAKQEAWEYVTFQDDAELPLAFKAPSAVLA
As to the kind of experiment: percent inhibition of purified LpxC at […]. To be noted: read-out: 1-68Aa.

In test [3] the target is T3, LpxC (Helicobacter pylori, UniProt O25692).
T3 sequence (O25692 1-295): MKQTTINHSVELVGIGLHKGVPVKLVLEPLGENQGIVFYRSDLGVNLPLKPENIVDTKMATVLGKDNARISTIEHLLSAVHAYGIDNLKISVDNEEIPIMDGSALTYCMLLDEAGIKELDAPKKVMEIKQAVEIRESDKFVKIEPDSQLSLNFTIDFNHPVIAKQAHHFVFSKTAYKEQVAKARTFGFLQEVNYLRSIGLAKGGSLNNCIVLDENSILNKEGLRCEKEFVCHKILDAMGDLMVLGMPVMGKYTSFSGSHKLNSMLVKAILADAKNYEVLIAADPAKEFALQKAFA
The test can be described thus: percent inhibition of purified LpxC ortholog at […]. The following applies: read-out: 1-68Aa.

For test [4], the target named is T3, LpxC. The test can be described thus: percent inhibition of purified LpxC ortholog at […]. To be noted: read-out: 1-68A.

Turning to `O=c1ccn([C@@H]2O[C@H](CON=Cc3ccc(O)c(O)c3)[C@@H](O)[C@H]2O)c(=O)[nH]1` [1-68Aa, 3,4-Dihydroxy-benzaldehyde O-[5-(2,4-dioxo-3,4-dihydro-2H-pyrimidin-1-yl)-3,4-dihydroxy-tetrahydro-furan-2-ylmethyl]-oxime], the figures for the inhibition at 50 µM (on LpxC [1]; in test [2]; on LpxC [3]) were 49%, 60% and 41%, respectively.

On to `O=c1ccn([C@@H]2O[C@H](CON=Cc3ccc(O)c(O)c3O)[C@@H](O)[C@H]2O)c(=O)[nH]1` [1-68A], for which the inhibition at 50 µM at LpxC [4] was 21%.
